{"source": "patent US20170296568A1", "about": "“SIRTUIN GENE POTENTIATOR, AND PHARMACEUTICAL PRODUCT, COSMETIC PRODUCT, AND FOOD PRODUCT USING SAME” (MORISHITA JINTAN CO., LTD., priority 2012, published 2017)", "data": [{"tested_on": "sirtuin gene hSIRT1", "experiment": "Expression level of endogenous sirtuin gene hSIRT1 in Caco-2 cells (quantitative PCR, relative to β-actin)", "format": "cell-based, human", "conditions": "10 μM, 2 days, qPCR normalised to β-actin, FIG. 2", "experimental": "Caco-2 cells were plated at 3.0×10^5 cells for a 5-mL dish. After 24 hours, each polyphenol was added to be 10 μM. Note that as a negative control, none of polyphenol nor terpenoid was added, and as a positive control, 10 μM resveratrol was added. At 2 days after this treatment, RNA was collected.\nThe total RNA was prepared using High Pure RNA Isolation Kit (manufactured by Roche, Indianapolis, Ind., USA). For the procedures from the total RNA preparation to the reverse transcription, the reagents and tools used were RNase-free. Cells were prepared in a sub-confluent to confluent condition in a cell culture dish (Greiner bio-one, Monroe, N.C., USA). The medium was completely removed, 200 μL of PBS, and 400 μL of cell lysis solution, which was contained in High Pure RNA Isolation Kit, were added, and the entire dish was well covered by the cell lysis solution. When the viscosity of the cell lysis solution was decreased, the cell lysis solution was collected into a 1.5-mL sample tube. The collected sample was well suspended. A filter tube and a collection tube, which were contained in High Pure RNA Isolation Kit, were assembled, and the sample was pipetted into a buffer reservoir in the upper portion of the filter tube, and was centrifuged at 8,000×g for 15 seconds. The flowthrough liquid into the collection tube was discarded, and the filter tube and the collection tube were again assembled. Then, 90 μL of DNase incubation buffer per sample was pipetted into a sterile reaction tube, and 10 μL of DNase I was added into the tube and mixed. The mixture liquid was pipetted into the buffer reservoir in the upper portion of the filter tube, was added on the glass fiber fleece in the filter tube, and was incubated at room temperature for 15 minutes. Then, 500 μL of wash buffer I, which was contained in High Pure RNA Isolation Kit, was added to the buffer reservoir in the upper portion of the filter tube, and was centrifuged at 8,000×g for 15 seconds. The flowthrough liquid into the collection tube was discarded, and the filter tube and the collection tube were again assembled. Then, 500 μL of wash buffer II was added to the buffer reservoir in the upper portion of the filter tube, and centrifugation was performed at 8,000×g for 15 seconds. The liquid discharged to the collection tube was discarded, and the filter tube and the collection tube were again assembled. Then, 200 μL of wash buffer II was added to the buffer reservoir in the upper portion of the filter tube, and centrifugation was performed at 13,000×g for 2 minutes, after which a remaining wash buffer in the filter tube was removed. The collection tube was discarded, the filter tube was inserted into a sterile reaction tube, and 50 μL of elution buffer was added in the filter tube, and centrifugation was performed at 8,000×g for 1 minute. The eluate obtained by the procedures was taken as an RNA solution. The concentration of RNA in the solution was calculated based on the light absorbance at 260 nm with a NanoDrop 2000/2000c spectrophotometer (Thermo Scientific, Waltham, Mass., USA), for use in subsequent experiments.\nThen, 5 pmol of oligo(dT)20 primer was added to 1.0 μg of total RNA extracted from the cells, and sterile water was further added thereto so that the total liquid amount was 13 μL. Heat treatment was performed using a thermal cycler (Peltier Thermal Cycler PTC-200, MJ Research, Watertown, Mass., USA) at 65° C. for 5 minutes, and the resultant was immediately transferred in ice to quench it. During this treatment, the reverse transcriptase reaction program was advanced to the 42° C. stage and was temporarily stopped. A mixture solution obtained by mixing 4 μL of reverse transcriptase reaction buffer solution, 2 μL of 1 mM dNTPs (Amershan Pharmacia Biotech., Buckinghamshire, UK), and 0.5 μL of reverse transcriptase ReverTra Ace (TOYOBO, Osaka, Japan) per sample was added to and gently mixed with the sample on ice after 5 minutes. […]", "values": [{"smiles": "O=c1c(O)c(-c2ccc(O)c(O)c2)oc2cc(O)ccc12", "note": "[fisetin]", "relative gene expression level of hSIRT1": "hSIRT1 transcription enhancing effect was observed"}, {"smiles": "O=c1oc2cc(O)ccc2c2ccc(O)cc12", "note": "[urolithin A]", "relative gene expression level of hSIRT1": "hSIRT1 transcription enhancing effect was observed"}, {"smiles": "O=C1O[C@H]2[C@@H]3OC(=O)c4cc(O)c(O)c(O)c4-c4c(O)c(O)c5oc(=O)c6c(c(O)c(O)c7oc(=O)c4c5c76)-c4c(cc(O)c(O)c4O)C(=O)OC[C@H]3OC(O)[C@@H]2OC(=O)c2cc(O)c(O)c(O)c2-c2c1cc(O)c(O)c2O", "note": "(mixture of isomers) [punicalagin]", "relative gene expression level of hSIRT1": "hSIRT1 transcription enhancing effect was observed"}, {"smiles": "O=C1OC[C@H]2OC(O)[C@H](O)[C@@H](O)[C@@H]2OC(=O)c2cc(O)c(O)c(O)c2-c2c(O)c(O)c3oc(=O)c4c(c(O)c(O)c5oc(=O)c2c3c54)-c2c1cc(O)c(O)c2O", "note": "(mixture of isomers) [punicalin]", "relative gene expression level of hSIRT1": "hSIRT1 transcription enhancing effect was observed"}, {"smiles": "C[C@@]12C=Cc3occc3[C@H]1CC[C@@]13C[C@@H](CC[C@H]12)[C@@](O)(CO)C3", "note": "[kahweol]", "relative gene expression level of hSIRT1": "hSIRT1 transcription enhancing effect was observed"}]}]}
